Consider two molecules from patent publication EP4467141A1, “PYRAZOLO-QUINOLINES AS SELECTIVE INHIBITORS OF GENOTOXIC STRESS-INDUCED IKK/NF- KB PATHWAYS FOR CANCER THERAPY” (Max-Delbrück-Centrum für Molekulare Medizin in der …, priority 2023, dated 2024).

Holding throughout (assay): Kinase panel study
Type in all cases: biochemical
Common to all, as to details: read-out: Percentage of inhibition; for inhibition at 1 µM: 1000nM; for inhibition at 10 µM: 10000nM

In one assay the target is T1, ABL1 (Homo sapiens, UniProt P00519).
T1 construct: purchased Thermo Fisher Scientific
T1 sequence (P00519 whole entry): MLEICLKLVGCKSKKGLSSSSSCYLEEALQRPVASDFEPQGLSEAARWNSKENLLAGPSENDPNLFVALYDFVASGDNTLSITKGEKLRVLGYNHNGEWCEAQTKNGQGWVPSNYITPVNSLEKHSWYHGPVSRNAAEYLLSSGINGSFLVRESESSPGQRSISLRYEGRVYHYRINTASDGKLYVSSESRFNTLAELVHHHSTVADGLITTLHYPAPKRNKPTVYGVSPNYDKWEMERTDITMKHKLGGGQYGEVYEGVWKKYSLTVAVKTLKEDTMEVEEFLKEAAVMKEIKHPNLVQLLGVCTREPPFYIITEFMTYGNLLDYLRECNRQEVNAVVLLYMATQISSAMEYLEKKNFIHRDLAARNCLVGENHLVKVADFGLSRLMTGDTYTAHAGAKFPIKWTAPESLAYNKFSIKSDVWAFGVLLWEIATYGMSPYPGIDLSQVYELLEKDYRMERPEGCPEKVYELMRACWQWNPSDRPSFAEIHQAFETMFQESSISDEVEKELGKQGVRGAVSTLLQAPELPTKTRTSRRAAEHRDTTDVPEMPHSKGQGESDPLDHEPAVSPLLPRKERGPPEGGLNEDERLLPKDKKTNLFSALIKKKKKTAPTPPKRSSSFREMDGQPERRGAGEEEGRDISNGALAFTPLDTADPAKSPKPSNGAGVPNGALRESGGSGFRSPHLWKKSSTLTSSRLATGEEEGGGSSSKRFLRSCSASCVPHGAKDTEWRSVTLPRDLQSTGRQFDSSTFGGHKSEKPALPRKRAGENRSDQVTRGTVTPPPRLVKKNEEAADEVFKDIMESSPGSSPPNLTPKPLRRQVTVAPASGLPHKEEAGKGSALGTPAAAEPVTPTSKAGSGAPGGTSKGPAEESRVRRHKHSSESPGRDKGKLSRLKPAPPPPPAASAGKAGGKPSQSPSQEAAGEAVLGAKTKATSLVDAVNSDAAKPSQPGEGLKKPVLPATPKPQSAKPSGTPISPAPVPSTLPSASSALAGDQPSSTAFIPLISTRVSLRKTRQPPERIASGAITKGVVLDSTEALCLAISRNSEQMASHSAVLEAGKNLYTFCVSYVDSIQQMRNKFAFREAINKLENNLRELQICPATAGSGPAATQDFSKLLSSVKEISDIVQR
The method, boiled down: (§1)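 A commercial kinase profiling service ran the assays according to its ZLyte or Adapta standard protocols. Compound was present at 10 µM or 1 µM, and kinase activity loss was expressed as percent inhibition.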

For a further assay, the target named is T2, AMPK (A1/B2/G3) (Homo sapiens, UniProt Q13131).
T2 construct: purchased Thermo Fisher Scientific
The method, boiled down:
as §1

For the next assay, the target named is T3, FGFR4 (Homo sapiens, UniProt P22455).
T3 construct: purchased Thermo Fisher Scientific
T3 sequence (P22455 22-802): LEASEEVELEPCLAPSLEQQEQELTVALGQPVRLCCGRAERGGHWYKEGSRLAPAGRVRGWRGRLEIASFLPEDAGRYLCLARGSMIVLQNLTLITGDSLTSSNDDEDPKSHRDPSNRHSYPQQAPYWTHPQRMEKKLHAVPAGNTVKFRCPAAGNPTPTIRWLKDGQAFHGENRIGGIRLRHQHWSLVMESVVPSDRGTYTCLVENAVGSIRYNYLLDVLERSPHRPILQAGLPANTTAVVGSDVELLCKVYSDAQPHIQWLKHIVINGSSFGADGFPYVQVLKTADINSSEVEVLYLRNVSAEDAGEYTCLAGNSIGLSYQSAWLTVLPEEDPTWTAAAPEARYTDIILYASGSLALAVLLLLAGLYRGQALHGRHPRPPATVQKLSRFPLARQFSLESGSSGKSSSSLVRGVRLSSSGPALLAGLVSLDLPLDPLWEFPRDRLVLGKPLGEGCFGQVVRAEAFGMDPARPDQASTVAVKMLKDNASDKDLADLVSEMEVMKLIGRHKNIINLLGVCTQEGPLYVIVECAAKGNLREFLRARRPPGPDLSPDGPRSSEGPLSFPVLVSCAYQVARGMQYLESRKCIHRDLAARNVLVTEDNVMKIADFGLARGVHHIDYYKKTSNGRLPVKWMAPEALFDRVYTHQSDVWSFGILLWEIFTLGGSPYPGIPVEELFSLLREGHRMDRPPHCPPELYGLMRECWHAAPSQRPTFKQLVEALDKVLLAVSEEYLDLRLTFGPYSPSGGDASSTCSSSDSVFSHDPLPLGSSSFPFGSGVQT
The method, boiled down: as §1

Another assay concerns the target T4, FRK (PTK5) (Homo sapiens, UniProt P42685).
T4 construct: purchased Thermo Fisher Scientific
The method, boiled down: as §1

The next assay addresses T5, GRK7 (Homo sapiens, UniProt Q8WTQ7).
T5 construct: purchased Thermo Fisher Scientific
T5 sequence (Q8WTQ7 1-553): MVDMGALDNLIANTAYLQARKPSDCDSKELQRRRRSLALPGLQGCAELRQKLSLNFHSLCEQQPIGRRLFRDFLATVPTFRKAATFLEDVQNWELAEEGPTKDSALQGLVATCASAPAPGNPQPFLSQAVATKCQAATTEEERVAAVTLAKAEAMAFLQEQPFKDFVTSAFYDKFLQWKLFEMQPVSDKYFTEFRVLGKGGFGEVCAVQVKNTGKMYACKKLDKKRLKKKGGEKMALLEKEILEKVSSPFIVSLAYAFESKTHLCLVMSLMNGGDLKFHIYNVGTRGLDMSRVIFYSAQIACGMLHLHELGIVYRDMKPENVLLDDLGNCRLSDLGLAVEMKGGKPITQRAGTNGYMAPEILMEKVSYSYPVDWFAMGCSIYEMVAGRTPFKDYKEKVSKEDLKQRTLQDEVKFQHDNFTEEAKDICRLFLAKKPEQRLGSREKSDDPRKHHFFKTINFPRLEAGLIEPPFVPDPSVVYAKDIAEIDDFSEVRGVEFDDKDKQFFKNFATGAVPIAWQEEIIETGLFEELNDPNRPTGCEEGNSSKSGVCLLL
The method, boiled down:
as §1

For the next assay, the target named is T6, NTRK3 (TRKC) (Homo sapiens, UniProt Q16288).
T6 construct: purchased Thermo Fisher Scientific
T6 sequence (Q16288 32-839): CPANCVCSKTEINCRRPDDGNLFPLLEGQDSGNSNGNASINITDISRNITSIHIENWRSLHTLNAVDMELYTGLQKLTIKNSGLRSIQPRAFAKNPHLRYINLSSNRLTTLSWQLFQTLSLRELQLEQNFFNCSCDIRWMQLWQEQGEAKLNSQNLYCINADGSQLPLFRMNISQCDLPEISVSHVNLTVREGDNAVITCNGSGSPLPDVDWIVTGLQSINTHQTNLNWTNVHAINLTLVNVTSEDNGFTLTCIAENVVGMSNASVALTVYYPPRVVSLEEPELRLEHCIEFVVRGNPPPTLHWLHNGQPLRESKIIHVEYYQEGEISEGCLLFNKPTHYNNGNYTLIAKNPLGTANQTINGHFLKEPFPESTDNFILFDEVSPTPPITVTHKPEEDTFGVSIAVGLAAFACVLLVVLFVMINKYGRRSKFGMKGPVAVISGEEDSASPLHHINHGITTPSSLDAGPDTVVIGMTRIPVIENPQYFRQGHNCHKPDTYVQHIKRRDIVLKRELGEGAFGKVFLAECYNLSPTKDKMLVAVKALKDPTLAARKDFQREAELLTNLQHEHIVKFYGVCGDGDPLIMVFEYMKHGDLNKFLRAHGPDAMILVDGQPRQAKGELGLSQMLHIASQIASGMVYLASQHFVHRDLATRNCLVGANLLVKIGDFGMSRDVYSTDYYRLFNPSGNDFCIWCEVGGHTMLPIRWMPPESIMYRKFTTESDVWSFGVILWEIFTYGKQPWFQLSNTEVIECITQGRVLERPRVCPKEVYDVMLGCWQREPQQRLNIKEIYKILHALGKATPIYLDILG
The method, boiled down: as §1

In another assay the target is T7, PRKD1 (PKC mu) (Homo sapiens, UniProt Q15139).
T7 construct: purchased Thermo Fisher Scientific
T7 sequence (Q15139 1-912): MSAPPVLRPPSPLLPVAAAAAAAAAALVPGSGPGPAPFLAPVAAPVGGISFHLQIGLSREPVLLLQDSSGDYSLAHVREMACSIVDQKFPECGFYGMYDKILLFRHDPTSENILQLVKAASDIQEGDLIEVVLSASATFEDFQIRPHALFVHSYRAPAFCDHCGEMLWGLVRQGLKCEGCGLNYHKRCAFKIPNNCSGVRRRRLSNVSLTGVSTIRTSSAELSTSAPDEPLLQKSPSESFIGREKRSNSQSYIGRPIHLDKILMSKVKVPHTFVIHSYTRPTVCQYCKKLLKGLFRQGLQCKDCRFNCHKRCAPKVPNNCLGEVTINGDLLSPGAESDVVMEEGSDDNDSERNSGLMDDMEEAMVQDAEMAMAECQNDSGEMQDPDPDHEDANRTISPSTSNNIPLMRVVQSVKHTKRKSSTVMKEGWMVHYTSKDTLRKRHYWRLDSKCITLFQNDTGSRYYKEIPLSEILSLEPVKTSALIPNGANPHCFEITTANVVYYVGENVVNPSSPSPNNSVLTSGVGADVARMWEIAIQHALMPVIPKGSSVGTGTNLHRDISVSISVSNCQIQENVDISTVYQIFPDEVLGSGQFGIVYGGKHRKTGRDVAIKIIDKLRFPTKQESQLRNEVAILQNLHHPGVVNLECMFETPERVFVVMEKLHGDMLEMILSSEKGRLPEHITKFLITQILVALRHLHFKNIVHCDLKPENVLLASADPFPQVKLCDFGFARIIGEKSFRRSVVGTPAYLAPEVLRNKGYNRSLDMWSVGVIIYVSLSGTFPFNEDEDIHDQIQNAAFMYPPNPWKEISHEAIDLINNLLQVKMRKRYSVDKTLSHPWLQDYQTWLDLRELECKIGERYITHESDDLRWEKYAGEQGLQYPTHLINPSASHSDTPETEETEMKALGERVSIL
The method, boiled down:
as §1

The target in another assay is T8, RET V804E (Homo sapiens, UniProt P07949, V804E).
T8 construct: purchased Thermo Fisher Scientific
T8 sequence (P07949 29-1114 V804E): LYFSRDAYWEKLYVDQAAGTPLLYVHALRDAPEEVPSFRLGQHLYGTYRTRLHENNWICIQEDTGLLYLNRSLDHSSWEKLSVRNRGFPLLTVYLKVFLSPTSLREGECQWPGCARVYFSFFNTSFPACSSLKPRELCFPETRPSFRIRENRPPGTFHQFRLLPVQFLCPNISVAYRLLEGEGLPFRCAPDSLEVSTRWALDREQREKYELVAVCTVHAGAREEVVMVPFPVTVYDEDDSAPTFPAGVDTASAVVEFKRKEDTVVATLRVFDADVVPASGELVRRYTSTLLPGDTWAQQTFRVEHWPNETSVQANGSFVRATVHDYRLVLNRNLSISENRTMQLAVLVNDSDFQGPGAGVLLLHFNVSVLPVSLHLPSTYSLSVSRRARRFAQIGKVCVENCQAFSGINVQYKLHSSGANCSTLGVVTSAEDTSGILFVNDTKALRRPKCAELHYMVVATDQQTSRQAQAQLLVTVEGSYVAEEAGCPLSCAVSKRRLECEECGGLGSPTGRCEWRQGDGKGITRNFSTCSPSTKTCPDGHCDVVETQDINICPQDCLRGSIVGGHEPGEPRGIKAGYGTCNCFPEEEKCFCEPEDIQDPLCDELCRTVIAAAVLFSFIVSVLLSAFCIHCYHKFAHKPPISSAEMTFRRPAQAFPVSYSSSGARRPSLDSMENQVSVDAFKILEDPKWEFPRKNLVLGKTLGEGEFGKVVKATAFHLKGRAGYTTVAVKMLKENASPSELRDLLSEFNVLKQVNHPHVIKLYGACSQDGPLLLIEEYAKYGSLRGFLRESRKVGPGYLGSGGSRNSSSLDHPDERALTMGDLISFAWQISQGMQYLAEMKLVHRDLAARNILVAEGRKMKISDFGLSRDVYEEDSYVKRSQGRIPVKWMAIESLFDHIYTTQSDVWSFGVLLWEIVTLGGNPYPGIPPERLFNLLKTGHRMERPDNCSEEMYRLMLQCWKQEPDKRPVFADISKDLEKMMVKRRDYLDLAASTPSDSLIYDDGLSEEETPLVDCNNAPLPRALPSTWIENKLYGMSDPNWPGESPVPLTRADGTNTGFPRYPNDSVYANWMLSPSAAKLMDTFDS
The method, boiled down:
as §1

For the next assay, the target named is T9, RPS6KA3 (RSK2) (Homo sapiens, UniProt P51812).
T9 construct: purchased Thermo Fisher Scientific
T9 sequence (P51812 whole entry): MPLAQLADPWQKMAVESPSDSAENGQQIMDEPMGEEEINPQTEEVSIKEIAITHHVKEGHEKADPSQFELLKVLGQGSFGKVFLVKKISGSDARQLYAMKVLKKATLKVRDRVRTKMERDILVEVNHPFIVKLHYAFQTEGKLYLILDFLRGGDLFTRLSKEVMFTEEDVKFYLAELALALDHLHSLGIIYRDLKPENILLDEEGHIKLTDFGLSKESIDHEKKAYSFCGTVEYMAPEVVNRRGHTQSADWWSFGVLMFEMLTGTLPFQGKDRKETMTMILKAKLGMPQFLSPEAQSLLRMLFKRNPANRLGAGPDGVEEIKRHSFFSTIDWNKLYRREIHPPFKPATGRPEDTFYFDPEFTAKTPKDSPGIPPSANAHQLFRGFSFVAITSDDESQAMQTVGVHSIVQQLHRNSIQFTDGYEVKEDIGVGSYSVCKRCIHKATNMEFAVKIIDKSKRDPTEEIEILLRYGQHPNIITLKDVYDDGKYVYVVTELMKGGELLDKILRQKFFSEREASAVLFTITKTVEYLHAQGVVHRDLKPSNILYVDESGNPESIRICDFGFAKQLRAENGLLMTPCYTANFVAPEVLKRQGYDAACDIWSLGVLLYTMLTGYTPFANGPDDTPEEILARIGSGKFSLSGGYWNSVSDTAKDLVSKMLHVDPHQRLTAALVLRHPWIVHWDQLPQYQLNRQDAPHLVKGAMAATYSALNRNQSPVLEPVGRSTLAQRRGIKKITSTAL
The method, boiled down:
as §1

A further assay addresses T10, RPS6KB1 (p70S6K) (Homo sapiens, UniProt P23443).
T10 construct: purchased Thermo Fisher Scientific
The method, boiled down:
as §1

SMILES strings stand for the structures.

T10 sequence (P23443 whole entry): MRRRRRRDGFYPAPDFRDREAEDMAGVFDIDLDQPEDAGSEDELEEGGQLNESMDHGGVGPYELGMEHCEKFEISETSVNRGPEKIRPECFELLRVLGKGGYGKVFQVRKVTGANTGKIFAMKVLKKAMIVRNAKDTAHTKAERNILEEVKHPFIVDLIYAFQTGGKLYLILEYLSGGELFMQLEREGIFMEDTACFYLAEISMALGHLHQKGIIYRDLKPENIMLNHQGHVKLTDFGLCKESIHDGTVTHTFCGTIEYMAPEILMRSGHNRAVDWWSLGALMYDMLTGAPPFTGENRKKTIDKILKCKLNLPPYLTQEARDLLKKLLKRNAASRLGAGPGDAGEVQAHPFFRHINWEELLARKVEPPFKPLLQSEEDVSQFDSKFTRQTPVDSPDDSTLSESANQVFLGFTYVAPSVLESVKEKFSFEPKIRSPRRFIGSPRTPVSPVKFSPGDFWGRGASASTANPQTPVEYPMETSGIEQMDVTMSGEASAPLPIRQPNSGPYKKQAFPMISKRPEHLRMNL

A word on the inhibition: it is the change of the read-out against control, counted positive when it falls. As to `COc1ccc2c(c1OC)c(=O)n1c3ccc(O)cc3c3ccnc2c31` [MW01, 5-Hydroxy-10,11-dimethoxy-9H-benzo[c]indolo[3,2,1-ij][1,5]naphthyridin-9-one], the inhibition at 1 µM was 15% on ABL1; 3% at AMPK (A1/B2/G3); 13% at FGFR4; 15% on FRK (PTK5); -2% on GRK7; 42% at NTRK3 (TRKC). The inhibition at 1 µM came to 28% on PRKD1 (PKC mu), 5% on RET V804E, 5% on RPS6KA3 (RSK2) and 19% on RPS6KB1 (p70S6K). Besides, the inhibition at 10 µM was 27% at ABL1; 19% on AMPK (A1/B2/G3); 37% at FGFR4; 22% on FRK (PTK5); 0% at GRK7; 66% on NTRK3 (TRKC). Besides, the inhibition at 10 µM amounted to 49% on PRKD1 (PKC mu), 17% on RET V804E, 10% on RPS6KA3 (RSK2) and 15% at RPS6KB1 (p70S6K).
As for `COc1ccc2cc3c(N)nn(C(=O)c4cccc(N(C)C)c4)c3nc2c1` [MW05, (3-Amino-7-methoxypyrazolo[3,4-b]quinolin-1-yl)-[3-(dimethylamino)phenyl]methanone], the inhibition at 1 µM at ABL1 is 4%; on AMPK (A1/B2/G3), 0%; on FGFR4 it was 13%; on FRK (PTK5), 9%; on GRK7, -2%; on NTRK3 (TRKC) it was 10%. The inhibition at 1 µM at PRKD1 (PKC mu) is 5%; at RET V804E, 1%; on RPS6KA3 (RSK2), 3%; on RPS6KB1 (p70S6K) it was 12%. Also, the inhibition at 10 µM was 6% on ABL1; -6% at AMPK (A1/B2/G3); -4% on FGFR4; 6% on FRK (PTK5); 5% on GRK7; 11% on NTRK3 (TRKC). The inhibition at 10 µM on PRKD1 (PKC mu) was 9%; on RET V804E it was -7%; at RPS6KA3 (RSK2), 2%; on RPS6KB1 (p70S6K) it was 7%.
